Test results reported in US20230093476A1, “SUBSTITUTED FUSED IMIDAZOLE DERIVATIVES AND METHODS OF TREATING REFRACTIVE OCULAR DISORDERS” (vTv Therapeutics LLC, priority 2020, published 2023).

What was measured:
lens from aged mice = test: In vitro lens elasticity, coverslip method, cultured lenses from aged mice; type: cell-based, C57BL/6J mice; conditions: for Change in Diameter (μm) (Mean ± S.E.): about 14 hours incubation at 37° C., mouse lens; for efficacy compared with positive control groups using lipoic acid: 50 μM and 500 μM; for lens elasticity relative to control: both concentrations of 50 μM and 500 μM; for dose dependence of elasticity increase: from the lower dose (50 μM) to the higher dose (500 μM)
Experimental: Test compounds (Examples 46 and 134) at 50 μM and 500 μM, Positive Control of Lipoic Acid at 50 μM and 500 μM, and control treatment were administered to lenses (12 per group) according to methods described in Invest Ophthalmol Vis Sci. 2016; 57:2851-2863. Briefly, seven month old C57BL/6J mice (male) were euthanized by CO2 overdose. Lenses were removed and placed in culture medium. Lenses were incubated for about 2 hours at 37° C. The medium was replaced with fresh medium supplemented with test compounds or with fresh medium. After about 14 hours incubation at 37° C., lenses were removed from culture medium.
(§1) Measurement of lens elasticity was performed according to the methods described in Invest Ophthalmol Vis Sci. 2016; 57:2851-2863. Briefly, lenses were placed on slides and photographed. A second photograph was taken after a coverslip was placed on the lens. Equatorial diameters changed by the coverslips placed on the lens were analyzed.

mouse lens = test: Lens elasticity under 2-week repeated topical instillation (TID), coverslip method; type: in vivo, C57BL/6J mice; conditions: for efficacy compared with 1.5% solutions comprising LACE: 0.5% and 1.5% solutions; for efficacy compared with 1.5% solutions comprising LACE / Right Eye Change in Diameter (μm) (Mean ± S.E.): TID; for efficacy compared with 1.5% solutions comprising LACE / Right Eye Change in Diameter (μm) (Mean ± S.E.) / elasticity of the mouse lenses: 2 weeks; for Right Eye Change in Diameter (μm) (Mean ± S.E.): treated right eye; for elasticity of the mouse lenses: repeated instillation of 0.15%, 0.5%, 1.5% solutions TID
Experimental: Test compounds (Examples 46 and 134), positive control of Lipoic Acid Choline Ester (LACE), and control treatment were topically administered to right eyes according to methods described in Invest Ophthalmol Vis Sci. 2016; 57:2851-2863. Briefly, eight month old C57BL/6J mice (male) were treated with 2.5 μL of each test sample three times per day (TID) at about 4-hour intervals in the right eyes for 2 weeks. The left eyes were used as untreated controls. Each treatment group included 10 mice, and the vehicle group included 5 mice.
as §1, with “after 2-week treatment, mice were euthanized by CO2 overdose. Lenses were removed and analyzed for changes in elasticity. Lenses” for “lenses”

[1] = Table 3, left eye = untreated control eye of mice given 1.5% solution in right eye
[2] = Table 2, left eye = untreated control eye of mice given 1.5% solution in right eye

Structure (SMILES)	Change in Diameter (μm) (Mean ± S.E.) (lens from aged mice; 50 μM)	Change in Diameter (μm) (Mean ± S.E.) (lens from aged mice; 500 μM)	efficacy compared with 1.5% solutions comprising LACE (mouse lens)	Right Eye Change in Diameter (μm) (Mean ± S.E.) (mouse lens; Table 3, 0.15% solution)	Right Eye Change in Diameter (μm) (Mean ± S.E.) (mouse lens; Table 3, 0.5% solution)	Right Eye Change in Diameter (μm) (Mean ± S.E.) (mouse lens; Table 3, 1.5% solution)	Left Eye Change in Diameter (μm) (Mean ± S.E.) (mouse lens; Table 3, left eye = untreated control eye of mice given 0.15% solution in right eye)	Left Eye Change in Diameter (μm) (Mean ± S.E.) (mouse lens; Table 3, left eye = untreated control eye of mice given 0.5% solution in right eye)	Left Eye Change in Diameter (μm) (Mean ± S.E.) (mouse lens; [1])	elasticity of the mouse lenses (mouse lens)	efficacy compared with positive control groups using lipoic acid (lens from aged mice)	lens elasticity relative to control (lens from aged mice)	dose dependence of elasticity increase (lens from aged mice)	Right Eye Change in Diameter (μm) (Mean ± S.E.) (mouse lens; Table 2, 0.15% solution)	Right Eye Change in Diameter (μm) (Mean ± S.E.) (mouse lens; Table 2, 0.5% solution)	Right Eye Change in Diameter (μm) (Mean ± S.E.) (mouse lens; Table 2, 1.5% solution)	Left Eye Change in Diameter (μm) (Mean ± S.E.) (mouse lens; Table 2, left eye = untreated control eye of mice given 0.15% solution in right eye)	Left Eye Change in Diameter (μm) (Mean ± S.E.) (mouse lens; Table 2, left eye = untreated control eye of mice given 0.5% solution in right eye)	Left Eye Change in Diameter (μm) (Mean ± S.E.) (mouse lens; [2])
O=C(O)CCCC[C@@H]1CCSS1 (racemic) [Lipoic Acid, reference compound]	63.8 ± 6.5	83.8 ± 7.4																	
Cn1c(Nc2nc3ccc(OC(F)(F)F)cc3s2)nc2cc(C(=O)NCCOCCO)ccc21 [Example 46, 1-Methyl-2-(6-trifluoromethoxy-benzothiazol-2-ylamino)-1H-benzoimidazole-5-carboxylic acid [2-(2-hydroxy-ethoxy)-ethyl]-amide]	67.4 ± 5.6	80.4 ± 5.3	better than or equivalent to	42.3 ± 4.0	63.2 ± 5.4	62.7 ± 3.4	32.2 ± 4.3	34.7 ± 4.5	41.3 ± 3.9	significantly increased	almost the same	significantly increased	dose dependent increase						
CN(C)C(=O)CNC(=O)c1ccc2c(c1)nc(Nc1nc3ccc(C(F)(F)F)cc3s1)n2C [Example 134, 1-Methyl-2-(6-trifluoromethyl-benzothiazol-2-ylamino)-1H-benzimidazole-5-carboxylic acid dimethylcarbamoylmethyl-amide]	59.6 ± 3.4	72.3 ± 4.0	better than or equivalent to							significantly increased	almost the same	significantly increased	dose dependent increase	46.0 ± 5.0	74.3 ± 8.3	80.0 ± 5.3	33.5 ± 5.9	51.7 ± 5.3	39.7 ± 6.5
C[N+](C)(C)CCOC(=O)CCCC[C@@H]1CCSS1 [LACE, Lipoic Acid Choline Ester, reference compound]						60.8 ± 2.9			30.1 ± 6.0							64.5 ± 4.5			41.5 ± 5.2
